One data set addresses T1, human ETA receptors (Homo sapiens, UniProt P25101).
T1 construct: expressed in transfected cells; host or cells: Ltk- cells (mouse fibroblast, thymidine kinase deficient)
T1 sequence (P25101 21-427): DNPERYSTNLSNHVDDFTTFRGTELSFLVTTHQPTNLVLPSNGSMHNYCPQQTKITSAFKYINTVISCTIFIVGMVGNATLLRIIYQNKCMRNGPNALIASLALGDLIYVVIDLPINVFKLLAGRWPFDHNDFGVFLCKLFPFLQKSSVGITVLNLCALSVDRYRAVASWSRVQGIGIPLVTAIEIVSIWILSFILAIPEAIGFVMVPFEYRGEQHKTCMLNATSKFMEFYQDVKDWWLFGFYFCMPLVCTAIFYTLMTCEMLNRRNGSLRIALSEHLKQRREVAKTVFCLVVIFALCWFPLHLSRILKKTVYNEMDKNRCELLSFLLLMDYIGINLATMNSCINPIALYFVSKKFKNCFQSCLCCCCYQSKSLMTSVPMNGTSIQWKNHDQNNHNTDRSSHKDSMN
Nature of the data set: Saturation binding of [125I]ET-1, Scatchard analysis (Ltk- cell membranes).

In the next data set the target is T2, rat ETA receptors (Rattus norvegicus, UniProt P26684).
T2 construct: endogenous in cells
T2 sequence (P26684 21-426): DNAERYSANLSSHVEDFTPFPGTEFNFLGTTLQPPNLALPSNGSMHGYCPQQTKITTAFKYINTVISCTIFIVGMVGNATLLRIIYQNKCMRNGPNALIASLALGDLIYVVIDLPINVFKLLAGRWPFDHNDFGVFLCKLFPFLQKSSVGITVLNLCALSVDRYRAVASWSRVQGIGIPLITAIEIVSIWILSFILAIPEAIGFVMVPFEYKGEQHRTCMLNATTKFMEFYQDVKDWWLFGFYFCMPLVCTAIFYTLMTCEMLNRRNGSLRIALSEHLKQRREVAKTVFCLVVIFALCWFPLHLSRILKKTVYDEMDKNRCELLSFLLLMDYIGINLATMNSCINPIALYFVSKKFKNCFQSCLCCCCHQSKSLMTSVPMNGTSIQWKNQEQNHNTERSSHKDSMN
Nature of the data set: [125I]ET-1 binding, membranes from rat A10 cells. An excerpt:
Relative binding activities are given below in TABLE 3.

In the next data set the target is T3, ETA receptor (Oryctolagus cuniculus, UniProt A5A8K3).
T3 sequence (A5A8K3 21-427): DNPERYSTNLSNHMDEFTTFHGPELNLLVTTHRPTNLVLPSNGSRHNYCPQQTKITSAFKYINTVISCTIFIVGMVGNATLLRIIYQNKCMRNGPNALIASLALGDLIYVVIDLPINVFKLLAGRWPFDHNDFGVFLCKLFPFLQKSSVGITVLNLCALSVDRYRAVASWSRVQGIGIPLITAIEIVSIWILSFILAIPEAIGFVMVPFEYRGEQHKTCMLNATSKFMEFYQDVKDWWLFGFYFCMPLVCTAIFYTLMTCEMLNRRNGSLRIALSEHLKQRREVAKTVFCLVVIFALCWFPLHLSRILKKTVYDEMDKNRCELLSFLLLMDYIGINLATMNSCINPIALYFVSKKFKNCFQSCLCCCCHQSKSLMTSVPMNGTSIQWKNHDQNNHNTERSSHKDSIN
The experiment in a line: ET-1 induced contraction in isolated rabbit femoral artery. As for the experimental part: In rabbit femoral artery vasculature, the receptor responsible for mediating the contractile activity of ET-1 appears to be predominantly the ETA receptor subtype, whereas in the rabbit pulmonary artery the contractile activity of ET-1 appears to be mediated by both ETA and ETB receptors.
In rabbit femoral and pulmonary arteries, ET-1 produced concentration-dependent increases in contractile tension starting at 1 nM.

Data set [1] in a line: Thermal properties, hygroscopicity and stability. The format is physicochemical.

SMILES strings stand for the structures.

Data on one molecule can be found in patent US20020115661A1, “Method for treating chronic obstructive pulmonary disease” (priority 2000, published 2002).

In the case of `CCc1cc(C2=C(C(=O)[O-])N(c3ccccc3C(F)(F)F)S(=O)(=O)c3ccccc32)cc2c1OCO2.[K+]` [CI-1034, 4-(7-Ethyl-1,3-benzodioxol-5-yl)-2-[2-(trifluoromethyl)phenyl]-2H-1 ,2-benzothiazine-3-carboxylic acid 1,1-dioxide monopotassium salt], the Ki at human ETA receptors (Scatchard analysis, read-out: Ki (inhibitor constant of unlabeled antagonist)) was 0.51 nM. For the same molecule, on human ETA receptors (saturation binding), the “effect on Bmax (maximal [125I]ET-1 binding)” value was “without significantly affecting”. In addition, the “effect on apparent Kd of [125I]ET-1 binding” value on human ETA receptors (saturation binding) is “reduced”. Further, on rat ETA receptors, the IC50 was 3.3 nM. For the same molecule, the “potency at blocking ETA versus ETB receptor signaling” value on ETA receptor (isolated rabbit vasculature, femoral versus pulmonary artery KB) is listed as 389 fold. Also, the “effect on ET-1 induced maximal contraction” value on ETA receptor (rabbit femoral artery) is listed as “not affected”. Besides, the Schild regression slope on ETA receptor (rabbit femoral artery, r=0.99) turned out to be 0.88. The Hygroscopicity entry in data set [1] is listed as “Hygroscopicity: CI-1034 is moderately hygroscopic”. Moreover, the Stability on storage result in data set [1] (4 weeks at 80° C. or 40° C. and 70% relative humidity) was “CI-1034 was stable for 4 weeks when stored at 80 °C or 40 °C and 70% relative humidity. CI-1034 does not need special storage requirements, other than the usual protection from light”. Moreover, the “thermally stable up to” value in data set [1] (begins to melt with decomposition) was “Thermal Properties: CI-1034 is thermally stable up to approximately 300° C., where it begins to melt with decomposition”. For the same molecule, the Stability result in data set [1] (exposed to hydrogen peroxide) is reported as “No significant degradation”; in data set [1] (exposed to simulated sunlight), “# peroxide. In contrast, samples exposed to simulated sunlight showed degradation”; in data set [1] (heated in acid, base, or water, protected from light), “stable”.

A word on the Ki: it is the equilibrium dissociation constant of an inhibitor or competing ligand from its target. The IC50 is the concentration that inhibits the measured activity by half. A high value points to a need for much substance.
